Test results published in publication PMC10194981, “Chemosensory protein regulates the behavioural response of Frankliniella intonsa and Frankliniella occidentalis to tomato zonate spot virus–Infected pepper (Capsicum annuum)” (PLOS Pathogens, 2023).
Entries after “also recorded” stand apart in the source; their conditions may differ.

How the values were obtained:
F. intonsa antennae = test: Electroantennogram (EAG) assay; set-up: species or system Frankliniella intonsa; conditions: 1 mg/L in liquid paraffin; excised F. intonsa antennae
Description: The FintCSP1, FintCSP2, FintOBP, FintOR, FoccCSP, and enhanced green fluorescent protein (EGFP) coding sequences were obtained from GenBank under accession numbers MT199111, MT211602, OK067245, MT211603, AEP27186.1, and U55761.1, respectively. Primers were designed using Primer Premier 5.0, and the T7 promoter sequence (5′-[…]-3′) was added to the 5′ end of each primer (S1 Table). DNA fragments containing T7 promoter sequences were amplified by PCR using pEASY-T1/target gene or pUC-EGFP (preserved in the laboratory) plasmid DNA as template. Then, a double-stranded RNA (dsRNA) was produced from each target gene using the HiScribe T7 Quick High Yield RNA Synthesis Kit (New England Biolabs) according to the manufacturer’s instructions. Six hundred 2-day-old female F. intonsa or two hundred 2-day-old female F. occidentalis adults were anesthetized using CO2 and microinjected with 40 nL (3 μg/μL) dsRNA (dsFintCSP1 dsFintCSP2, dsFintOBP, dsFintOR or dsFoccCSP or dsEGFP) using a CellTram Oil microinjector (Eppendorf, Hamburg, Germany). The injected thrips were kept on broad beans in an artificial climate incubator as described above and used in subsequent RNAi experiments. Three biological replicates were conducted for each treatment with each dsRNA.
At 24 h after dsRNA injection, the electrophysiological responses of F. intonsa antennae to six volatile components (i.e., m-cymene, cis-3-hexenal, (+)-2-carene, trans-2-hexenal, α-phellandrene, and α-humulene) or F. occidentalis antennae to cis-3-hexenal were recorded using EAG. Antennae of female adult thrips were cut off at the base, and the distal terminus was carefully removed. The tested compounds were dissolved in liquid paraffin, with pure liquid paraffin used as a negative control. An Ag-AgCl2 glass electrode and Kaissling electrode solution were used in the experiment according to Tian et al.. The base of the antenna was inserted into the glass capillary filled with electrode solution at the end of the reference electrode; the top of the antenna was connected to the glass capillary at the end of the recording electrode to ensure no bubbles in the glass capillary. After successful connection, the antennae were stimulated with each chemical in the following order: liquid paraffin, volatile compounds, and liquid paraffin. Stimulus time was 0.2 s with each stimulus at 40 s intervals. At least 10 antennae were tested for each volatile compound. The EAG values to volatile compounds were calculated using the following equation: absolute value of EAG reaction = reaction value of the tested sample—average value of two control measurements.

FintCSP1-Val132Ala = FintCSP1-Val132Ala (Frankliniella intonsa, UniProt A0A891LVF4, V132A); test: Fluorescence (1-NPN) binding and competitive binding assay, FintCSP1 mutant (negative control residue)
FintCSP1-Val132Ala, sequence (A0A891LVF4 entry or part of it V132A): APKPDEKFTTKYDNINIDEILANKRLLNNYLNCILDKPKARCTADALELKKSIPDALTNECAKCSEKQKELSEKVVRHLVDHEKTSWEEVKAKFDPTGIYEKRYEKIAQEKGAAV
Description: (§1) The binding affinity of FintCSP1 and FoccCSP to the fluorescent probe N-phenyl-1-naphthylamine (1-NPN) was tested using a Spectramax M2 fluorescence spectrometer (Molecular Devices, USA) as reported previously. Volatile compounds and 1-NPN were first dissolved to a concentration of 1 mM in HPLC-grade methanol and dissolved to their indicated final concentration (2–20 μM) to titrate 2 μM protein solutions resuspended in 50 mM Tris-HCl (pH 7.4). The 1-NPN/FintCSP1 or 1-NPN/FoccCSP mixture was excited at 280 nm, and the emission spectra were recorded at 415 nm. The binding constants (Kd) of FintCSP1 or FoccCSP to 1-NPN were calculated by Scatchard analysis using Prism 5 software (GraphPad, La Jolla, CA, USA). Assuming a protein activity of 100% and that the volatile compound binds to the protein in a 1:1 ratio at saturation, the dissociation constants (Ki) of FintCSP1 or FoccCSP for each ligand were calculated according to the IC50 (the concentration when the ligand replaces 50% of the probe) value of the volatile compounds. The Ki values were calculated according to the following equation: Ki = [IC50]/(1 + [1-NPN]/K1-NPN), where [1-NPN] is the free concentration of 1-NPN, and K1-NPN is the Kd of the 1-NPN/FintCSP1 or 1-NPN/FoccCSP.
(§2) To verify the key amino acids of FintCSP1 and FoccCSP that bind to cis-3-hexenal, six amino acid residues of FintCSP1 were mutated (Lys26Ala, Phe27Ala, Thr28Ala, Glu67Ala, Ser84Ala, and the negative control residue Val132Ala) and nine amino acid residues of FoccCSP were mutated (Lys26Ala, Phe27Ala, Thr28Ala, Thr29Ala, Tyr31Ala, Asp64Ala, Glu67Ala, Gln87Ala, and the negative control residue Val132Ala) with the Fast Mutagenesis System Kit (Transgen Biotech, Beijing, China) using the pET-30a/FintCSP1 and pET-30a/FoccCSP plasmid DNA as template, respectively. […] After validation by sequencing, each recombinant variant protein was produced and purified as described above, and their binding affinity to cis-3-hexenal was measured as described above.

FintCSP1-Ser84Ala = FintCSP1-Ser84Ala (Frankliniella intonsa, UniProt A0A891LVF4, S84A); test: Fluorescence (1-NPN) binding and competitive binding assay, FintCSP1 mutant
FintCSP1-Ser84Ala, sequence (A0A891LVF4 entry or part of it S84A): as the sequence (A0A891LVF4 entry or part of it V132A) above, with S65A, A113V counted along it
Description: as §1, §2

FoccCSP-Tyr31Ala = FoccCSP-Tyr31Ala (Frankliniella occidentalis, UniProt G4Y3X1, Y31A); test: Fluorescence (1-NPN) binding and competitive binding assay, FoccCSP mutant
FoccCSP-Tyr31Ala, sequence (G4Y3X1 entry or part of it Y31A): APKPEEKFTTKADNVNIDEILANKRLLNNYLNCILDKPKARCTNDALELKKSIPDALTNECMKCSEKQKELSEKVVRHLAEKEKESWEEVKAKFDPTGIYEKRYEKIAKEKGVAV
Description: as §1
(§3) To verify the key amino acids of FintCSP1 and FoccCSP that bind to cis-3-hexenal, six amino acid residues of FintCSP1 were mutated (Lys26Ala, Phe27Ala, Thr28Ala, Glu67Ala, Ser84Ala, and the negative control residue Val132Ala) and nine amino acid residues of FoccCSP were mutated (Lys26Ala, Phe27Ala, Thr28Ala, Thr29Ala, Tyr31Ala, Asp64Ala, Glu67Ala, Gln87Ala, and the negative control residue Val132Ala) with the Fast Mutagenesis System Kit (Transgen Biotech, Beijing, China) using the pET-30a/FintCSP1 and pET-30a/FoccCSP plasmid DNA as template, respectively. Specific primers were designed using Primer Premier 5.0 according to the instructions of the Fast Mutagenesis System Kit (S1 Table). After validation by sequencing, each recombinant variant protein was produced and purified as described above, and their binding affinity to cis-3-hexenal was measured as described above.

FoccCSP-Gln87Ala = FoccCSP-Gln87Ala (Frankliniella occidentalis, UniProt G4Y3X1, Q87A); test: as above
FoccCSP-Gln87Ala, sequence (G4Y3X1 entry or part of it Q87A): as the sequence (G4Y3X1 entry or part of it Y31A) above, with A12Y, Q68A counted along it
Description: as §1, §3

FoccCSP-Lys26Ala = FoccCSP-Lys26Ala (Frankliniella occidentalis, UniProt G4Y3X1, K26A); test: as above
FoccCSP-Lys26Ala, sequence (G4Y3X1 entry or part of it K26A): as the sequence (G4Y3X1 entry or part of it Y31A) above, with K7A, A12Y counted along it
Description: as §1, §3

FintCSP1-Thr28Ala = FintCSP1-Thr28Ala (Frankliniella intonsa, UniProt A0A891LVF4, T28A); test: Fluorescence (1-NPN) binding and competitive binding assay, FintCSP1 mutant
FintCSP1-Thr28Ala, sequence (A0A891LVF4 entry or part of it T28A): as the sequence (A0A891LVF4 entry or part of it V132A) above, with T9A, A113V counted along it
Description: as §1, with “Volatile compounds and 1-NPN were first dissolved to a concentration of 1 mM in HPLC-grade methanol and dissolved to their indicated final concentration (2–20 μM) to titrate 2 μM protein solutions resuspended in 50 mM Tris-HCl (pH 7.4).” left out
as §3

FintCSP1-Glu67Ala = FintCSP1-Glu67Ala (Frankliniella intonsa, UniProt A0A891LVF4, E67A); test: as above
FintCSP1-Glu67Ala, sequence (A0A891LVF4 entry or part of it E67A): as the sequence (A0A891LVF4 entry or part of it V132A) above, with E48A, A113V counted along it
Description: as §1, with “Volatile compounds and 1-NPN were first dissolved to a concentration of 1 mM in HPLC-grade methanol and dissolved to their indicated final concentration (2–20 μM) to titrate 2 μM protein solutions resuspended in 50 mM Tris-HCl (pH 7.4).” left out
as §3

FintCSP1-Phe27Ala = FintCSP1-Phe27Ala (Frankliniella intonsa, UniProt A0A891LVF4, F27A); test: as above
FintCSP1-Phe27Ala, sequence (A0A891LVF4 entry or part of it F27A): as the sequence (A0A891LVF4 entry or part of it V132A) above, with F8A, A113V counted along it
Description: as §1, with “Volatile compounds and 1-NPN were first dissolved to a concentration of 1 mM in HPLC-grade methanol and dissolved to their indicated final concentration (2–20 μM) to titrate 2 μM protein solutions resuspended in 50 mM Tris-HCl (pH 7.4).” left out
as §3

FintCSP1-Lys26Ala = FintCSP1-Lys26Ala (Frankliniella intonsa, UniProt A0A891LVF4, K26A); test: as above
FintCSP1-Lys26Ala, sequence (A0A891LVF4 entry or part of it K26A): as the sequence (A0A891LVF4 entry or part of it V132A) above, with K7A, A113V counted along it
Description: as §1, with “Volatile compounds and 1-NPN were first dissolved to a concentration of 1 mM in HPLC-grade methanol and dissolved to their indicated final concentration (2–20 μM) to titrate 2 μM protein solutions resuspended in 50 mM Tris-HCl (pH 7.4).” left out
as §3

[1] = molecular target: recombinant wild-type FintCSP1 (Frankliniella intonsa, UniProt A0A891LVF4); test: Fluorescence (1-NPN) binding and competitive binding assay, wild-type FintCSP1
recombinant wild-type FintCSP1, sequence (A0A891LVF4 entry or part of it): as the sequence (A0A891LVF4 entry or part of it V132A) above, with A113V counted along it
Description: (§4) FintCSP1 and FoccCSP DNA were released from pEASY-T1/FintCSP1 and pEASY-T1/FoccCSP, respectively, by restriction digestion with BamHI and XhoI and cloned into the pET-30a vector (Invitrogen). The resulting construct was transformed into Transetta (DE3) Escherichia coli competent cells (Transgen). The production of recombinant FintCSP1 and FoccCSP was induced by addition of isopropyl-β-D-1-thiogalactopyranoside (IPTG, 0.2 mM) at 15°C and purified by Ni ion affinity chromatography (Sangon Biotech, Shanghai, China). The target protein was verified by 15% SDS-PAGE, and its concentration was determined with a BCA protein assay kit (Thermo Scientific, Rockford, IL, USA). The recombinant purified protein was stored at −20°C until use.
as §1, with “Volatile compounds and 1-NPN were first dissolved to a concentration of 1 mM in HPLC-grade methanol and dissolved to their indicated final concentration (2–20 μM) to titrate 2 μM protein solutions resuspended in 50 mM Tris-HCl (pH 7.4).” left out

[2] = molecular target: recombinant wild-type FoccCSP (Frankliniella occidentalis, UniProt G4Y3X1); test: Fluorescence (1-NPN) binding and competitive binding assay, wild-type FoccCSP
recombinant wild-type FoccCSP, sequence (G4Y3X1 entry or part of it): as the sequence (G4Y3X1 entry or part of it Y31A) above, with A12Y counted along it
Description: as §4, §1

FoccCSP-Thr29Ala = FoccCSP-Thr29Ala (Frankliniella occidentalis, UniProt G4Y3X1, T29A); test: Fluorescence (1-NPN) binding and competitive binding assay, FoccCSP mutant
FoccCSP-Thr29Ala, sequence (G4Y3X1 entry or part of it T29A): as the sequence (G4Y3X1 entry or part of it Y31A) above, with T10A, A12Y counted along it
Description: as §1, with “Volatile compounds and 1-NPN were first dissolved to a concentration of 1 mM in HPLC-grade methanol and dissolved to their indicated final concentration (2–20 μM) to titrate 2 μM protein solutions resuspended in 50 mM Tris-HCl (pH 7.4).” left out
as §3

FoccCSP-Glu67Ala = FoccCSP-Glu67Ala (Frankliniella occidentalis, UniProt G4Y3X1, E67A); test: as above
FoccCSP-Glu67Ala, sequence (G4Y3X1 entry or part of it E67A): as the sequence (G4Y3X1 entry or part of it Y31A) above, with A12Y, E48A counted along it
Description: as §1, with “Volatile compounds and 1-NPN were first dissolved to a concentration of 1 mM in HPLC-grade methanol and dissolved to their indicated final concentration (2–20 μM) to titrate 2 μM protein solutions resuspended in 50 mM Tris-HCl (pH 7.4).” left out
as §3

FoccCSP-Phe27Ala = FoccCSP-Phe27Ala (Frankliniella occidentalis, UniProt G4Y3X1, F27A); test: as above
FoccCSP-Phe27Ala, sequence (G4Y3X1 entry or part of it F27A): as the sequence (G4Y3X1 entry or part of it Y31A) above, with F8A, A12Y counted along it
Description: as §1, with “Volatile compounds and 1-NPN were first dissolved to a concentration of 1 mM in HPLC-grade methanol and dissolved to their indicated final concentration (2–20 μM) to titrate 2 μM protein solutions resuspended in 50 mM Tris-HCl (pH 7.4).” left out
as §3

FoccCSP-Thr28Ala = FoccCSP-Thr28Ala (Frankliniella occidentalis, UniProt G4Y3X1, T28A); test: as above
FoccCSP-Thr28Ala, sequence (G4Y3X1 entry or part of it T28A): as the sequence (G4Y3X1 entry or part of it Y31A) above, with T9A, A12Y counted along it
Description: as §1, with “Volatile compounds and 1-NPN were first dissolved to a concentration of 1 mM in HPLC-grade methanol and dissolved to their indicated final concentration (2–20 μM) to titrate 2 μM protein solutions resuspended in 50 mM Tris-HCl (pH 7.4).” left out
as §3

FoccCSP-Asp64Ala = FoccCSP-Asp64Ala (Frankliniella occidentalis, UniProt G4Y3X1, D64A); test: as above
FoccCSP-Asp64Ala, sequence (G4Y3X1 entry or part of it D64A): as the sequence (G4Y3X1 entry or part of it Y31A) above, with A12Y, D45A counted along it
Description: as §1, with “Volatile compounds and 1-NPN were first dissolved to a concentration of 1 mM in HPLC-grade methanol and dissolved to their indicated final concentration (2–20 μM) to titrate 2 μM protein solutions resuspended in 50 mM Tris-HCl (pH 7.4).” left out
as §3

FoccCSP-Val132Ala = FoccCSP-Val132Ala (Frankliniella occidentalis, UniProt G4Y3X1, V132A); test: Fluorescence (1-NPN) binding and competitive binding assay, FoccCSP mutant (negative control residue)
FoccCSP-Val132Ala, sequence (G4Y3X1 entry or part of it V132A): as the sequence (G4Y3X1 entry or part of it Y31A) above, with A12Y, V113A counted along it
Description: as §1, §3

Question: With `CC1=CC2C(CC1)C2(C)C` (single isomer, unassigned; (+)) [(+)-2-carene] as the compound, how does the EAG peak amplitude (F. intonsa antennae) read?
Answer: –0.016 mV

Question: Which results are given for `c1ccc(Nc2cccc3ccccc23)cc1` [1-NPN, N-phenyl-1-naphthylamine, reference compound]?
Answer: Kd (FintCSP1-Val132Ala): 6.77 ± 0.36 µM; Kd (FintCSP1-Ser84Ala): 3.48 ± 0.33 µM; Kd (FoccCSP-Tyr31Ala): 9.79 ± 0.87 µM; Kd (FoccCSP-Gln87Ala): 20.3 ± 2.25 µM; Kd (FoccCSP-Lys26Ala): 17.4 ± 1.32 µM; Kd (FintCSP1-Thr28Ala): 3.85 ± 0.41 µM; Kd (FintCSP1-Glu67Ala): 4.5 ± 0.61 µM; Kd (FintCSP1-Phe27Ala): 4.38 ± 0.49 µM; Kd (FintCSP1-Lys26Ala): 3.3 ± 0.39 µM; Kd [1]: 6.07 ± 0.4 µM; Kd [2]: 6.36 ± 0.51 µM; Kd (FoccCSP-Thr29Ala): 15.5 ± 1.74 µM; Kd (FoccCSP-Glu67Ala): 15.7 ± 2.3 µM; Kd (FoccCSP-Phe27Ala): 7.09 ± 0.39 µM; Kd (FoccCSP-Thr28Ala): 19.9 ± 2.43 µM; Kd (FoccCSP-Asp64Ala): 31 ± 4.55 µM; Kd (FoccCSP-Val132Ala): 7.26 ± 0.66 µM

Question: How did the EAG peak amplitude (F. intonsa antennae) turn out when `CCC/C=C/C=O` [trans-2-hexenal] was run?
Answer: –0.024 mV

Question: What about the IC50 [1] of the same compound?
Answer: > 100 µM

Question: And the Ki [1]?
Answer: > 100 µM

Question: And the “binding affinity to FintCSP1 (in words)” value ([1]; wild-type FintCSP1, competitive fluorescence binding assay, classes of Ki)?
Answer: no FintCSP1 binding; also recorded: could not bind
